Consider 18 compounds from patent US10112950B2, “Substituted imidazo[1,2-a]pyrazines as LSD1 inhibitors” (Incyte Corporation, priority 2014, dated 2018).

Bounds are passed on as bounds.

The target of this experiment is LSD-1 enzyme (Homo sapiens (Human), UniProt O60341). In words: LANCE LSD1/KDM1A demethylase assay (LSD1 histone demethylase biochemical assay). The settings on record: 1 nM LSD-1 enzyme, 1 hour preincubation at 25° C., 0.4 μM Biotin-labeled Histone H3 peptide substrate. On the procedure: LSD1 Histone Demethylase Biochemical Assay
LANCE LSD1/KDM1A demethylase assay-10 μL of 1 nM LSD-1 enzyme (ENZO BML-SE544-0050) in the assay buffer (50 mM Tris, pH 7.5, 0.01% Tween-20, 25 mM NaCl, 5 mM DTT) were preincubated for 1 hour at 25° C. with 0.8 μL compound/DMSO dotted in black 384 well polystyrene plates. […] Reactions were stopped by addition of 10 μL 1× LANCE Detection Buffer (PerkinElmer CR97-100) supplemented with 1.5 nM Eu-anti-unmodified H3K4 Antibody (PerkinElmer TRF0404), and 225 nM LANCE Ultra Streptavidin (PerkinElmer TRF102) along with 0.9 mM Tranylcypromine-HCl (Millipore 616431). After stopping the reactions plates were incubated for 30 minutes and read on a PHERAstar FS plate reader (BMG Labtech).
As for `Cc1cc(-c2c(-c3ccc(C#N)cc3)nc(N3CCC(N(C)C)CC3)c3nccn23)cc(F)c1CO` [Example 97, 4-{8-[4-(dimethylamino)piperidin-1-yl]-5-[3-fluoro-4-(hydroxymethyl)-5-methylphenyl]imidazo[1,2-a]pyrazin-6-yl}benzonitrile], the IC50 is no more than 50 nM.

`CN1C(=O)Cc2cc(-c3c(-c4ccc(C#N)cc4)nc(N4CCC(N(C)C)CC4)c4nccn34)ccc21` [Example 98, 4-[8-[4-(dimethylamino)piperidin-1-yl]-5-(1-methyl-2-oxo-2,3-dihydro-1H-indol-5-yl)imidazo[1,2-a]pyrazin-6-yl]benzonitrile] gave an IC50 of no more than 50 nM.

In turn, `CN(C)C1CCCN(c2nc(-c3ccc(C#N)cc3)c(-c3ccc(N4CCCC4=O)nc3)n3ccnc23)C1` (stereo not drawn) [Example 99, 4-{8-[3-(dimethylamino)piperidin-1-yl]-5-[6-(2-oxopyrrolidin-1-yl)pyridin-3-yl]imidazo[1,2-a]pyrazin-6-yl}benzonitrile] displayed an IC50 of no more than 50 nM.

In the case of `CN1CCN(c2ccc(-c3c(-c4ccc(C#N)cc4)nc(N4CCC(N(C)C)CC4)c4nccn34)cn2)C1=O` [Example 100, 4-{8-[4-(dimethylamino)piperidin-1-yl]-5-[6-(3-methyl-2-oxoimidazolidin-1-yl)pyridin-3-yl]imidazo[1,2-a]pyrazin-6-yl}benzonitrile], the IC50 is no more than 50 nM.

`CN(C)C1CCN(c2nc(-c3ccc(C#N)cc3)c(-c3ccc4nccnc4c3)n3ccnc23)CC1` [Example 101, 4-{8-[4-(dimethylamino)piperidin-1-yl]-5-quinoxalin-6-ylimidazo[1,2-a]pyrazin-6-yl}benzonitrile] gave an IC50 of no more than 50 nM.

In the case of `CN1C(=O)CCc2cc(-c3c(-c4ccc(C#N)cc4)nc(N4CCC(N(C)C)CC4)c4nccn34)ccc21` [Example 102, 4-[8-[4-(dimethylamino)piperidin-1-yl]-5-(1-methyl-2-oxo-1,2,3,4-tetrahydroquinolin-6-yl)imidazo[1,2-a]pyrazin-6-yl]benzonitrile], the IC50 was no more than 50 nM.

`CN(C)C1CCN(c2nc(-c3ccc(C#N)cc3)c(-c3cnc4c(c3)cc(CO)n4C)n3ccnc23)CC1` [Example 103, 4-{8-[4-(dimethylamino)piperidin-1-yl]-5-[2-(hydroxymethyl)-1-methyl-1H-pyrrolo[2,3-b]pyridin-5-yl]imidazo[1,2-a]pyrazin-6-yl}benzonitrile] gave an IC50 of no more than 50 nM.

Compound `CCn1c(=O)oc2cc(-c3c(-c4ccc(C#N)cc4)nc(N4CCC(N(C)C)CC4)c4nccn34)cnc21` [Example 105, 4-[8-[4-(dimethylamino)piperidin-1-yl]-5-(3-ethyl-2-oxo-2,3-dihydro[1,3]oxazolo[4,5-b]pyridin-6-yl)imidazo[1,2-a]pyrazin-6-yl]benzonitrile] displayed an IC50 of no more than 50 nM.

`CN(C)C1CCN(c2nc(-c3ccc(C#N)cc3)c(-c3ccc4c(c3)ncn4C)n3ccnc23)CC1` [Example 106, 4-[8-[4-(dimethylamino)piperidin-1-yl]-5-(1-methyl-1H-benzimidazol-5-yl)imidazo[1,2-a]pyrazin-6-yl]benzonitrile] returned an IC50 of no more than 50 nM.

In the case of `CN1C(=O)COc2cc(-c3c(-c4ccc(C#N)cc4)nc(N4CCC(N(C)C)CC4)c4nccn34)cnc21` [Example 107, 4-[8-[4-(dimethylamino)piperidin-1-yl]-5-(4-methyl-3-oxo-3,4-dihydro-2H-pyrido[3,2-b][1,4]oxazin-7-yl)imidazo[1,2-a]pyrazin-6-yl]benzonitrile], the IC50 was no more than 50 nM.

The compound `CN1CCN(c2ccc(-c3c(-c4ccc(C#N)cc4)nc(N4CCC(N(C)C)CC4)c4nccn34)cn2)CC1=O` [Example 109, 4-{8-[4-(dimethylamino)piperidin-1-yl]-5-[6-(4-methyl-3-oxopiperazin-1-yl)pyridin-3-yl]imidazo[1,2-a]pyrazin-6-yl}benzonitrile] gave an IC50 of no more than 50 nM.

Compound `CN(C)C1CCN(c2nc(-c3ccc(C#N)cc3)c(-c3ccc4c(c3)c(CO)nn4C)n3ccnc23)CC1` [Example 110, 4-{8-[4-(dimethylamino)piperidin-1-yl]-5-[3-(hydroxymethyl)-1-methyl-1H-indazol-5-yl]imidazo[1,2-a]pyrazin-6-yl}benzonitrile] came in with an IC50 of no more than 50 nM.

`CN1C(=O)Cc2cc(-c3c(-c4ccc(C#N)cc4)nc(N4CCC(N(C)C)CC4)c4nccn34)cnc21` [Example 111, 4-[8-[4-(dimethylamino)piperidin-1-yl]-5-(1-methyl-2-oxo-2,3-dihydro-1H-pyrrolo[2,3-b]pyridin-5-yl)imidazo[1,2-a]pyrazin-6-yl]benzonitrile] came in with an IC50 of no more than 50 nM.

The compound `CN(C)C1CCN(c2nc(-c3ccc(C#N)cc3)c(-c3cnc4c(ccn4C)c3)n3ccnc23)CC1` [Example 112, 4-[8-[4-(dimethylamino)piperidin-1-yl]-5-(1-methyl-1H-pyrrolo[2,3-b]pyridin-5-yl)imidazo[1,2-a]pyrazin-6-yl]benzonitrile] had an IC50 of no more than 50 nM.

Consider `C[C@@H](O)c1nc2cc(-c3c(-c4ccc(C#N)cc4)nc(N4CCC(N(C)C)CC4)c4nccn34)ccc2n1C` [Example 113, 4-(8-[4-(dimethylamino)piperidin-1-yl]-5-{2-[(1R)-1-hydroxyethyl]-1-methyl-1H-benzimidazol-5-yl}imidazo[1,2-a]pyrazin-6-yl)benzonitrile], for which the IC50 was no more than 50 nM.

For `Cc1nc2cc(-c3c(-c4ccc(C#N)cc4)nc(N4CCC(N(C)C)CC4)c4nccn34)ccc2n1C` [Example 115, 4-[8-[4-(dimethylamino)piperidin-1-yl]-5-(1,2-dimethyl-1H-benzimidazol-5-yl)imidazo[1,2-a]pyrazin-6-yl]benzonitrile], the IC50 is no more than 50 nM.

Regarding `COc1ncc(-c2c(-c3ccc(C#N)cc3)nc(N3CCC(N(C)C)CC3)c3nccn23)cc1O` [Example 118, 4-[8-[4-(dimethylamino)piperidin-1-yl]-5-(5-hydroxy-6-methoxypyridin-3-yl)imidazo[1,2-a]pyrazin-6-yl]benzonitrile], the IC50 is no more than 50 nM.

As for `COc1ncc(-c2c(-c3ccc(C#N)cc3)nc(OC[C@@H]3CCCN(C)C3)c3nccn23)cc1O` [Example 119, 4-(5-(5-hydroxy-6-methoxypyridin-3-yl)-8-{[(3R)-1-methylpiperidin-3-yl]methoxy}imidazo[1,2-a]pyrazin-6-yl)benzonitrile], the IC50 was no more than 50 nM.
